In the NIST ThermoML archive (doi:10.1016/j.tca.2011.09.016):
Numbers after ± are expanded uncertainties.

Conditions: Crystal 2; AC calorimetry

Q: Which Triple point temperature does the source give for `O=P([O-])(O)P(=O)([O-])O.[NH4+].[NH4+]` [diammonium hypodiphosphate] here?
A: The Triple point temperature was 177.5 ± 0.1 K.
